Results taken from patent publication US8278461B2, “Stable amorphous form of carvedilol dihydrogen phosphate with stabilizer” (Lupin Limited, priority 2007, dated 2012).
Read-outs that look alike come from different tables or passages of the source.

Tests used:
[1] = Glass transition temperature of the amorphous form; assay type: physicochemical
Procedure: We have filed an Indian patent application 292/KOL/2007 dated 27 Feb. 2007 in Indian Patent Office on amorphous form of carvedilol dihydrogen phosphate and the process for its preparation. The amorphous form obtained by the process described in this application has glass transition temperature below 60° C. The amorphous solids in general having low glass transition temperature not only create complications during formulation but also has stability related problems on storage. The glass transition temperature is the temperature, below which the physical properties of amorphous materials vary in a manner similar to those of a crystalline phase (glassy state), and above which amorphous materials behave like liquids (rubbery state). A materials glass transition temperature is the temperature below which molecules have little relative mobility. Thus, there exist a need to develop stable amorphous form of carvedilol dihydrogen phosphate which have improved characteristics. […] The amorphous carvedilol obtained without stabiliser having glass transition temperature 55-56° C. while the stable amorphous form of the present invention has glass transition temperature in the range between 76 to 185° C. The phosphorous content of the stable amorphous form of the present invention is between 18-20% on anhydrous basis.

[2] = amorphous form obtained by the process of Indian application 292/KOL/2007; cited from earlier work

COc1ccccc1OCCNCC(O)COc1cccc2[nH]c3ccccc3c12.O=P(O)(O)O (centres unmarked) [carvedilol dihydrogen phosphate]
glass transition temperature [1]: 55-56 °C
glass transition temperature [2]: below 60 °C
